Assay results: patent US20250376446A1, “[…] OF A […] CANNABINOID” (Jazz Pharmaceuticals Research UK Limited, priority 2022, published 2025)

Key:
[1] = test system: mouse model of generalised seizure (tonic hind limb extensor convulsions); test: Maximal electroshock seizure threshold (MEST) test in the mouse; conditions: for % change from vehicle (CC50) / CC50 +/- SEM: 30 min post dose
Protocol: The efficacy of compound 1 was tested in a mouse model of generalised seizure, the maximal electroshock seizure threshold (MEST) test.
The maximal electroshock seizure threshold (MEST) test is widely utilized preclinically to evaluate pro-or anti-convulsant properties of test compounds (Loscher et al., 1991).
In the MEST test the ability of a drug to alter the seizure threshold current required to induce hind limb tonic extensor convulsions is measured according to an “up and down” method of shock titration (Kimball et al., 1957). An increase in seizure threshold is indicative of anti-convulsant effect.
The ability of a test compound to alter the stimulus intensity, expressed as current (mA), required to induce the presence of tonic hind limb extensor convulsions, is assessed in the MEST.
Naïve mice were acclimatised to the procedure room in their home cages for up to 7 days, with food and water available ad libitum.
All animals were weighed at the beginning of the study and randomly assigned to treatment groups based on a mean distribution of body weight across groups.
The first animal within a treatment group was given a shock at the expected or estimated CC50 current. For subsequent animals, the current was lowered or raised depending on the convulsions outcome from the preceding animal, in intervals of 5 mA.
Data generated from each treatment group were used to calculate the CC50+SEM values for the treatment group.
Vehicle: (5% ethanol, 10% solutol, 85% Saline) was prepared as follows: 1 mL of ethanol, 2 mL of solutol were warmed to 60° C., in 17 mL of saline (1:2:17).
The test compound (compound 1) was administered at 2, 20 and 200 mg/kg (i.p.) in a 1:2:17 ethanol: solutol: 0.9% saline formulation.
The data for each treatment group were recorded as the number of +'s and 0's at each current level employed and this information is then used to calculate the CC50 value (current required for 50% of the animals to show seizure behaviour)±standard error.
Test compound effects were also calculated as percentage change in CC50 from the vehicle control group.
Significant difference between drug-treated animals and controls were assessed according to Litchfield and Wilcoxon (1949).

[2] = Stability of Form B to compression (die press, XRPD); type: physicochemical; conditions: compression @ 370 MPa for 24 hrs; for Output Form (compression experiment): XRPD
Protocol: A die press was used to mimic the uniaxial stress experienced during formulation steps such as tableting. Form B (50 mg) was added to a KBr pellet die and compressed overnight at ˜370 MPa using a hydraulic press. The resultant solid disc was removed from the press and immediately analysed by XRPD.

[3] = Stability of Form B to milling (ball mill, XRPD); type: physicochemical; conditions: no solvent, mill at 25 Hz, 3 x 2 mins; for Output Form (milling experiment): XRPD
Protocol: A ball mill was used to mimic the effects of grinding that would be experienced during formulation steps such as dry blending and wet granulation. Form B (50 mg) was added to a milling chamber with an agate milling ball. Using a Retsch MM200 mixer mill, the material was milled for 6-10 minutes at a frequency of 25 Hz. Periodically, the milling was stopped and powder that adhered to the milling chamber was scraped down. The resultant milled material was analysed using XRPD.

[4] = Stability of Form B to humidity stress (XRPD); type: physicochemical; conditions: 40° C./75% RH for 8 days
Protocol: Form B material was exposed to high humidity conditions to determine stability on storage. Approximately 20 mg of Form B material was added to a vial and placed unsealed into a sealed cabinet with a relative humidity of 75% (controlled by a super-saturated salt solution) and a temperature of 40° C. for 8 days. The resultant material was analysed by XRPD.

[5] = Retest of Form C after storage at ambient conditions; type: physicochemical; conditions: 6 days storage at ambient conditions

Compound: C=C(C)[C@@H]1CCC(C)=C[C@H]1c1c(O)cc(-c2cnn(C)c2)cc1O [Compound 1, (1′R,2′R)-5′-methyl-4-(1-methyl-1H-pyrazol-4-yl)-2′-(prop-1-en-2-yl)-1′,2′,3′,4′-tetrahydro-[1,1′-biphenyl]-2,6-diol]
- % change from vehicle (CC50) ([1]; i.p., 2 mg/kg): 27%
- CC50 +/- SEM ([1]; i.p., 2 mg/kg): 30.8 ± 1.0 mA
- % change from vehicle (CC50) ([1]; i.p., 20 mg/kg): 116%
- CC50 +/- SEM ([1]; i.p., 20 mg/kg): 52.5 ± 1.3 mA
- % change from vehicle (CC50) ([1]; i.p., 200 mg/kg): 712%
- CC50 +/- SEM ([1]; i.p., 200 mg/kg): 197.5 ± 20.4 mA
- Effect on MEST (in words) ([1]; i.p., 2, 20 and 200 mg/kg): dose-related increase in MEST
- CC50 value compared to vehicle (in words) ([1]; i.p., 30 minutes before the test, all three doses (2, 20, 200 mg/kg)): statistically significant

Compound: CN1C(=O)CN=C(c2ccccc2)c2cc(Cl)ccc21 [Diazepam, diazepam, reference compound]
- % change from vehicle (CC50) ([1]; i.p., 2.5 mg/kg): 223%

Compound: C=C(C)[C@@H]1CCC(C)=C[C@H]1c1c(O)cc(-c2cnn(C)c2)cc1O [Form B, (1′R,2′R)-5′-methyl-4-(1-methyl-1H-pyrazol-4-yl)-2′-(prop-1-en-2-yl)-1′,2′,3′,4′-tetrahydro-[1,1′-biphenyl]-2,6-diol]
- Result (compression experiment) [2]: solid
- Output Form (compression experiment) [2]: stable to compression
- Output Form (compression experiment) ([2]; listed as B): B (slight disorder)
- Result (milling experiment) [3]: solid
- Output Form (milling experiment) [3]: did not undergo a change in form
- Output Form (milling experiment) ([3]; listed as B): B (disordered)
- Result (humidity stress experiment) [4]: solid
- Output Form (humidity stress experiment) ([4]; XRPD): stable to storage

Compound: C=C(C)[C@@H]1CCC(C)=C[C@H]1c1c(O)cc(-c2cnn(C)c2)cc1O [Form C, (1′R,2′R)-5′-methyl-4-(1-methyl-1H-pyrazol-4-yl)-2′-(prop-1-en-2-yl)-1′,2′,3′,4′-tetrahydro-[1,1′-biphenyl]-2,6-diol]
- Form after storage [5]: converted to a Form A
